Values of other authors as cited in patent US20060093676A1, “Ascorbic acid stability” (priority 2002, published 2006).

Details: in water

O=C1O[C@H]([C@@H](O)CO)C(O)=C1O [L-Ascorbic acid]
pK of acid-ionizable hydrogen: 4.2
